According to US9199962B2, “Substituted azaheterocycles for the treatment of cancer” (Merck Patent GmbH, priority 2011, dated 2015):
Like-named read-outs stand apart in the source and are kept apart here.

What was measured:
[1] = target: T1, GST-FAK (N-terminal GST fusion with truncated human FAK (376-1052 (end) amino acids)) (Homo sapiens, UniProt Q05397); assay: Biochemical enzyme assay for FAK activity (Caliper LC3000 mobility shift); conditions: 100 uM ATP, read-out: FAK IC50
T1 construct: truncated human FAK (376-1052 (end) amino acids)
Outline: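 Inhibitor dose series in DMSO were incubated 90 min at 25 °C with truncated GST-tagged human FAK (0.067 ng/µl) and FITC-labelled peptide substrate (1 µM), with ATP at 100 µM and FERM peptide at 1 mM (pH 7.5 HEPES). After EDTA quench, phosphorylated and unphosphorylated peptides were resolved electrophoretically. Percent conversion was fitted for IC50.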

[2] = target: T2, focal adhesion kinase (FAK) autophosphorylation at tyrosine 397 in HT29 cells (Homo sapiens, UniProt Q05397); assay: Cellular testing of FAK inhibitors: FAK autophosphorylation at tyrosine 397 in HT29 cells (Luminex-based assay); type: cell-based; conditions: 30 min serum-free, read-out: HT-29 IC50
T2 construct: endogenous in cells; host or cells: HT29
Description: 2. Assay Principle for Celluar Testing of FAK Inhibitors
Cellular activity of focal adhesion kinase (FAK) is determined by the degree of FAK autophosphorylation at tyrosine 397 using a Luminex-based assay. HT29 cells are plated with 30,000 cells per well of a 96-well plate in 100 μl medium (90% DMEM/10% FCS). At the following day, test compounds are added in a serial dilution under serum-free conditions for 30 min. Then, cells were lysed with 90 μl lysis buffer (20 mM Tris/HCl pH 8.0, 150 mM NaCl, 1% NP40, 10% Glycerol, 1% Phosphatase-Inhibitor II, 20 mM […]-Glycerolphosphat, 0.1% Protease-Inhibitor Cocktail III, 0.01% Benzonase) and lysates were cleared by centrifugation through a 96-well filter plate (0.65 μm). Samples were incubated with Luminex-beads which were coupled with an anti-total FAK antibody overnight at 4° C. with under gentle agitation. For detection of phospho-Y397-FAK a phosphospecific antibody and a species specific PE-labeled secondary antibody are added. The amount of phospho-Y397-FAK is determined in a Luminex100 machine measuring 100 events per well within 60 seconds.
Counts from samples treated with a FAK reference inhibitor are subtracted as pharmacological blank. Counts from samples treated with test compounds are calculated as percent of control from solvent treated (0.3% DMSO) samples. IC50 values were determined using AssayExplorer software.

T1 sequence (Q05397 376-1052): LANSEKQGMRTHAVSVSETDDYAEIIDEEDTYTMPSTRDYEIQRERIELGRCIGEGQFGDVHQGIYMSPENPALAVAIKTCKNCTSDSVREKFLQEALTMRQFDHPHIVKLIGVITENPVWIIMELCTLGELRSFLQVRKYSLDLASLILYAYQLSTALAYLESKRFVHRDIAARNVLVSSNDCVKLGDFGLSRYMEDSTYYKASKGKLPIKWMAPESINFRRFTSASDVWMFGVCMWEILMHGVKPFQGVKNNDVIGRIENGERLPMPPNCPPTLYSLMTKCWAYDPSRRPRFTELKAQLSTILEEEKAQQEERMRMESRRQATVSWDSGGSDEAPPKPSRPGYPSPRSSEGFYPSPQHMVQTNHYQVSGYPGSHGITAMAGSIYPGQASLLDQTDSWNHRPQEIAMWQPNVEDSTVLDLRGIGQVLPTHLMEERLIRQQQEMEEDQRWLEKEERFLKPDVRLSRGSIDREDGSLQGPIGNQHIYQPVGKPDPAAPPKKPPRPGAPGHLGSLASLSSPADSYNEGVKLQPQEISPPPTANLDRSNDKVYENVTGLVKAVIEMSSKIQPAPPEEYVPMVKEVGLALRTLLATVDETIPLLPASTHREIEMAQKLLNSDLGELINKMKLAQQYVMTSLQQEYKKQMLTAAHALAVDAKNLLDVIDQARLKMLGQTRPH
T2 sequence (Q05397 whole entry): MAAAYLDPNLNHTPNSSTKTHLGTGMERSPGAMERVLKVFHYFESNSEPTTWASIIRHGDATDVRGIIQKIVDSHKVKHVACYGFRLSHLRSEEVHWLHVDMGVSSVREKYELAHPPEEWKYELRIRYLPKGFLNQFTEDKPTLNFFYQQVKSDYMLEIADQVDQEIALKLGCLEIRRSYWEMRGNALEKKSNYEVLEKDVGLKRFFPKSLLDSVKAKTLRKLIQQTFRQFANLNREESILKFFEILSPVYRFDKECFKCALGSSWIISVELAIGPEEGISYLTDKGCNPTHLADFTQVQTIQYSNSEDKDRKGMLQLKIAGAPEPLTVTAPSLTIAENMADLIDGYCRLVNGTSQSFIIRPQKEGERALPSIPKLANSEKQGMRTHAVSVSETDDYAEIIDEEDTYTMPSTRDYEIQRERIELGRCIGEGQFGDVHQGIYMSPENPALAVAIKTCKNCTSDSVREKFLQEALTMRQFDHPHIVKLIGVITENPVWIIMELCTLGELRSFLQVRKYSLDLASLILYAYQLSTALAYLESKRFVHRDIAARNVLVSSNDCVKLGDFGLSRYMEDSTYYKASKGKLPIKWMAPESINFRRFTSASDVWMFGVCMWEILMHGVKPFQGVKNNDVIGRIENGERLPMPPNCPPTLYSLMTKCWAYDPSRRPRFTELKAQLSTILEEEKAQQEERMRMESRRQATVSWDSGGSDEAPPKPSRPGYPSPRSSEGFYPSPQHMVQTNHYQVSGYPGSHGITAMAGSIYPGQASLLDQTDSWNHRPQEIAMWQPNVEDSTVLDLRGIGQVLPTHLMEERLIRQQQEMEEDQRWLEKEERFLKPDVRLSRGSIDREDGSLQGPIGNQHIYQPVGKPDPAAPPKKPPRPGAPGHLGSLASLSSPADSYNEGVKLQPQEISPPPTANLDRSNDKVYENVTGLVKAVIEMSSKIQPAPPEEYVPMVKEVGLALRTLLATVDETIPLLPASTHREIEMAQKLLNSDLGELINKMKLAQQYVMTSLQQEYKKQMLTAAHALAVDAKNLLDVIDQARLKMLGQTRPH

| IC50 ([1]; Table 2) [nM] | IC50 ([2]; Table 2, phospho-Y397-FAK) [nM] | IC50 ([1]; Table 3) [nM] | IC50 ([2]; Table 3, phospho-Y397-FAK) [nM] | Structure (SMILES) |
| --- | --- | --- | --- | --- |
| 100 to 1000 | 1000 to 10000 |  |  | O=C1CCCN1CCCNc1cc(NCc2ccc(F)cc2F)nc(-c2cncc(C(F)(F)F)c2)n1 [Compound 57, 1-{3-[6-(2,4-Difluoro-benzylamino)-2-(5-trifluoromethyl-pyridin-3-yl)-pyrimidin-4-ylamino]-propyl}-pyrrolidin-2-one] |
| < 100 | 1000 to 10000 |  |  | Fc1ccc(CNc2cc(NCCCN3CCOCC3)nc(-c3cncc(C(F)(F)F)c3)n2)c(F)c1 [Compound 58, N-(2,4-Difluoro-benzyl)-N′-(3-morpholin-4-yl-propyl)-2-(5-trifluoromethyl-pyridin-3-yl)-pyrimidine-4,6-diamine] |
| 100 to 1000 | 1000 to 10000 |  |  | NC(=O)C1CCN(c2cc(NCc3ccc(F)cc3F)nc(-c3cncc(C(F)(F)F)c3)n2)CC1 [Compound 59, 1-[6-(2,4-Difluoro-benzylamino)-2-(5-trifluoromethyl-pyridin-3-yl)-pyrimidin-4-yl]-piperidine-4-carboxylic acid amide] |
| < 100 | 1000 to 10000 |  |  | CN(C)CCCNc1cc(NCc2ccc(F)cc2F)nc(-c2cncc(C(F)(F)F)c2)n1 [Compound 60, N-(2,4-Difluoro-benzyl)-N′-(3-dimethylamino-propyl)-2-(5-trifluoromethyl-pyridin-3-yl)-pyrimidine-4,6-diamine] |
| 100 to 1000 | 1000 to 10000 |  |  | CCN(CC)C(=O)CCNc1cc(NCc2ccc(F)cc2F)nc(-c2cncc(C(F)(F)F)c2)n1 [Compound 62, 3-[6-(2,4-Difluoro-benzylamino)-2-(5-trifluoromethyl-pyridin-3-yl)-pyrimidin-4-ylamino]-N,N-diethyl-propionamide] |
| 100 to 1000 | 1000 to 10000 |  |  | O=C(CCNc1cc(NCc2ccc(F)cc2F)nc(-c2cncc(C(F)(F)F)c2)n1)N1CCOCC1 [Compound 63, 3-[6-(2,4-Difluoro-benzylamino)-2-(5-trifluoromethyl-pyridin-3-yl)-pyrimidin-4-ylamino]-1-morpholin-4-yl-propan-1-one] |
| 100 to 1000 | 1000 to 10000 |  |  | CN1CCN(C(=O)CCNc2cc(NCc3ccc(F)cc3F)nc(-c3cncc(C(F)(F)F)c3)n2)CC1 [Compound 64, 3-[6-(2,4-Difluoro-benzylamino)-2-(5-trifluoromethyl-pyridin-3-yl)-pyrimidin-4-ylamino]-1-(4-methyl-piperazin-1-yl)-propan-1-one] |
| 100 to 1000 | > 10000 |  |  | CN(C)CCCCNc1cc(NCc2ccc(F)cc2F)nc(-c2cncc(C(F)(F)F)c2)n1 [Compound 65, N-(2,4-Difluoro-benzyl)-N′-(4-dimethylamino-butyl)-2-(5-trifluoromethyl-pyridin-3-yl)-pyrimidine-4,6-diamine] |
| < 100 | 100 to 1000 |  |  | NC(=O)CNC(=O)c1cc(NCc2ccc(F)cc2F)nc(-c2cncc(C(F)(F)F)c2)n1 [Compound 72, 6-(2,4-Difluoro-benzylamino)-2-(5-trifluoromethyl-pyridin-3-yl)-pyrimidine-4-carboxylic acid carbamoylmethyl-amide] |
|  |  | 100 to 1000 | > 10000 | Nc1ncccc1-c1nccc(NCc2ccccc2C(F)(F)F)n1 [Compound 77, 2-(2-Aminopyridin-3-yl)-N-[2-(trifluoromethyl)benzyl]pyrimidin-4-amine] |
|  |  | 100 to 1000 | > 10000 | FC(F)(F)c1ccccc1CNc1ccnc(-c2cccnc2)n1 [Compound 89, 2-Pyridin-3-yl-N-[2-(trifluoromethyl)benzyl]pyrimidin-4-amine] |
|  |  | 100 to 1000 | > 10000 | Nc1ncccc1-c1nccc(NCc2ccc(F)cc2F)n1 [Compound 98, 2-(2-Aminopyridin-3-yl)-N-(2,4-difluorobenzyl)pyrimidin-4-amine] |
|  |  | 100 to 1000 | > 10000 | Fc1cncc(-c2nccc(NCc3ccccc3C(F)(F)F)n2)c1 [Compound 107, 2-(5-Fluoropyridin-3-yl)-N-[2-(trifluoromethyl)benzyl]pyrimidin-4-amine] |
|  |  | < 100 | 1000 to 10000 | FC(F)(F)c1ccccc1CNc1ccnc(-c2cncc(Cl)c2)n1 [Compound 108, 2-(5-Chloropyridin-3-yl)-N-[2-(trifluoromethyl)benzyl]pyrimidin-4-amine] |
|  |  | < 100 | 1000 to 10000 | Nc1ncccc1-c1nccc(NCc2ccc(F)cc2C(F)(F)F)n1 [Compound 110, 2-(2-Aminopyridin-3-yl)-N-[4-fluoro-2-(trifluoromethyl)benzyl]pyrimidin-4-amine] |
|  |  | < 100 | 1000 to 10000 | FC(F)(F)c1cncc(-c2nccc(NCc3ccccc3C(F)(F)F)n2)c1 [Compound 112, N-[2-(Trifluoromethyl)benzyl]-2-[5-(trifluoromethyl)pyridin-3-yl]pyrimidin-4-amine] |
|  |  | < 100 | 100 to 1000 | Fc1ccc(CNc2ccnc(-c3cncc(Cl)c3)n2)c(F)c1 [Compound 114, 2-(5-Chloropyridin-3-yl)-N-(2,4-difluorobenzyl)pyrimidin-4-amine] |
|  |  | 100 to 1000 | > 10000 | CC(Nc1ccnc(-c2cccnc2N)n1)c1ccccc1C(F)(F)F (stereo not drawn) [Compound 115, 2-(2-Aminopyridin-3-yl)-N-{1-[2-(trifluoro-methyl)phenyl]ethyl}pyrimidin-4-amine] |
|  |  | < 100 | 1000 to 10000 | FC(F)(F)c1cc(Cl)ccc1CNc1ccnc(-c2cncc(Cl)c2)n1 [Compound 118, 2-(5-Chloropyridin-3-yl)-N-[4-chloro-2-(trifluoromethyl)benzyl]pyrimidin-4-amine] |
|  |  | < 100 | 1000 to 10000 | Fc1ccc(CNc2ccnc(-c3cncc(Cl)c3)n2)c(C(F)(F)F)c1 [Compound 119, 2-(5-Chloropyridin-3-yl)-N-[4-fluoro-2-(trifluoromethyl)benzyl]pyrimidin-4-amine] |
|  |  | < 100 | 1000 to 10000 | Fc1ccc(CNc2ccnc(-c3cncc(C(F)(F)F)c3)n2)c(C(F)(F)F)c1 [Compound 123, N-[4-Fluoro-2-(trifluoromethyl)benzyl]-2-[5-(trifluoromethyl)pyridin-3-yl]pyrimidin-4-amine] |
|  |  | < 100 | 1000 to 10000 | CC(Nc1ccnc(-c2cncc(Cl)c2)n1)c1ccccc1C(F)(F)F (stereo not drawn) [Compound 124, 2-(5-Chloropyridin-3-yl)-N-{1-[2-(trifluoromethyl)phenyl]ethyl}pyrimidin-4-amine] |
|  |  | < 100 | 1000 to 10000 | Fc1ccc(CNc2ccnc(-c3cncc(C(F)(F)F)c3)n2)c(F)c1 [Compound 125, N-(2,4-Difluorobenzyl)-2-[5-(trifluoromethyl)pyridin-3-yl]pyrimidin-4-amine] |
|  |  | < 100 | 1000 to 10000 | Nc1ncc(Cl)cc1-c1nccc(NCc2ccc(F)cc2F)n1 [Compound 126, 2-(2-Amino-5-chloropyridin-3-yl)-N-(2,4-difluorobenzyl)pyrimidin-4-amine] |
|  |  | < 100 | > 10000 | Clc1cncc(-c2nccc(NCc3cccc4c3OCO4)n2)c1 [Compound 127, N-(1,3-Benzodioxol-4-ylmethyl)-2-(5-chloropyridin-3-yl)pyrimidin-4-amine] |
|  |  | < 100 | 1000 to 10000 | Nc1ncc(Cl)cc1-c1nccc(NCc2ccccc2C(F)(F)F)n1 [Compound 129, 2-(2-Amino-5-chloropyridin-3-yl)-N-[2-(trifluoromethyl)benzyl]pyrimidin-4-amine] |
|  |  | < 100 | > 10000 | CC(Nc1ccnc(-c2cncc(C(F)(F)F)c2)n1)c1ccccc1C(F)(F)F (stereo not drawn) [Compound 130, N-{1-[2-(Trifluoromethyl)phenyl]ethyl}-2-[5-(trifluoromethyl)pyridin-3-yl]pyrimidin-4-amine] |
|  |  | < 100 | > 10000 | Clc1cncc(-c2nccc(NCc3cccc4nsnc34)n2)c1 [Compound 131, N-(2,1,3-Benzothiadiazol-4-ylmethyl)-2-(5-chloropyridin-3-yl)pyrimidin-4-amine] |
|  |  | < 100 | 1000 to 10000 | FC(F)(F)c1cncc(-c2nccc(NCc3ccc(Cl)cc3C(F)(F)F)n2)c1 [Compound 132, N-[4-Chloro-2-(trifluoromethyl)benzyl]-2-[5-(trifluoro-methyl)pyridin-3-yl]pyrimidin-4-amine] |
|  |  | < 100 | 1000 to 10000 | Nc1ncc(Cl)cc1-c1nccc(NCc2ccc(F)cc2C(F)(F)F)n1 [Compound 134, 2-(2-Amino-5-chloropyridin-3-yl)-N-[4-fluoro-2-(trifluoromethyl)benzyl]pyrimidin-4-amine] |
